From PubChem BioAssay AID2060497 (Molecular Pharmacology Branch, DTP, NCI, 2025)
Where “and” joins values, the source holds several entries; their conditions need not be identical. Identical values can stand only once.

Test system: 317291-083-R-J1-PDC complex spheroids, viability
Experiment: Anticancer human tumor 317291-083-R-J1-PDC patient-derived soft tissue sarcoma cell line growth inhibition [GQUAD]
Conditions: for viability, T/C: stronger effect = lower value; for IC50: curve of compound
Description: DNA G-quadruplex Stabilizer Agents in Combinations in Complex Spheroids
A high-throughput screen of multi-cell type tumor spheroids was designed to identify active combinations of DNA G-quadruplex stabilizer agents and targeted small molecules. Complex spheroids include a stromal component modeled by human endothelial cells (HUVEC) and fibroblasts modeled by human mesenchymal stem cells (MSCs). The concentration ranges selected for each drug and investigational agent were based upon clinically achievable concentrations if the clinical Cmax of the agent was known.
Compounds. The drugs and investigational agents: pidnarulex (CX-5461; NSC782164), APTO-253 (NSC789042), BRACO-19 (NSC847499), peposertib (NSC802822), ceralasertib (NSC780249), elimusertib (NSC800525), camonsertib (NSC841442), AZD-1390 (NSC803789), olaparib (NSC753686), talazoparib (NSC767125), ART-558 (NSC835418), sotorasib (NSC818433), MRTX-1133 (NSC836407), SN-38 (NSC673596), topotecan (NSC609699), etoposide (NSC141540), doxorubicin (NSC123127), gemcitabine (NSC613327), 5-fluorouracil (NSC19893), paclitaxel (NSC125973), vemurafenib (NSC761431), panobinostat (NSC761190), R-306465 (JNJ-16241199; NSC773264), adavosertib (NSC754352), TP-3654 (NSC805149), carboplatin (NSC241240), KSQ-4279 (NSC840948), and staurosporine (NSC755774) were obtained from the National Cancer Institute (NCI) Developmental Therapeutics Program Chemical Repository (34). The FDA-approved anticancer drug set is available from the NCI Developmental Therapeutics Program. […] The stock solutions were prepared in dimethyl sulfoxide (DMSO, Sigma-Aldrich, St. Louis, MO, cat. D2650) at 800-fold the tested concentration and stored at -70 degrees C prior to their use. All drugs and investigational agents were tested over a range starting from a high concentration at or near the clinical Cmax and decreasing in half-log increments. If the clinical Cmax for an agent had not been determined, the highest concentration tested was 10 microM.
2.3 Cell Culture. All cells were maintained in an incubator at 37 degrees C and 5% CO2 with 95% humidity. The PDC lines were cultured according to standard operating procedures established by the NCI PDMR. All PDCs were thawed and cultured in Matrigel-coated flasks prepared with a working solution of 1X Ham's F-12 nutrient mix, without supplementation (Invitrogen, cat. 11765054), 100 U/mL penicillin-streptomycin (Invitrogen, cat. 15140122), and 2.5% Matrigel (Corning Inc., cat. 354248) for the first three passages. The 857933-349-R-J2-PDC line was cultured in 6C/Colon 1B media, which includes advanced DMEM/F-12 (Thermo Fisher Scientific, cat. 12634028), 10 mM HEPES (Thermo Fisher Scientific, cat. 15630080), 1X GlutaMAX supplement (Thermo Fisher Scientific, cat. 35050061), 0.1 mg/mL primocin (InvivoGen, cat. ant-pm-2), 10% defined fetal bovine serum, heat inactivated (HyClone Laboratories Inc., cat. SH30070.03HI), 50% L-WRN conditioned media (ATCC, cat. CRL-3276), 1.25 mM N-Acetyl-L-cysteine (Sigma-Aldrich, cat. A9165), 10 mM nicotinamide (Sigma-Aldrich, cat. N0636), 1X B-27 supplement (Thermo Fisher Scientific, cat. 17504044), 1X N-2 supplement (Thermo Fisher Scientific, cat. 17502048), 10 microM Y-27632 dihydrochloride (Tocris Bioscience, cat. 1254), and 50 ng/mL human EGF recombinant protein (Thermo Fisher Scientific, cat. PHG0311). The 485176-168-R4-J1-PDC line was cultured in Panc media, which includes all 6C/Colon 1B media components plus 100 ng/mL human FGF-10 (Thermo Fisher Scientific, cat. 100-26), 500 nM SB-431542 (Selleckchem, cat. S1067), and gastrin (Tocris, cat. 3006).
[…]
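Also: spheroids exposed to compounds for one week before readout.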
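For viability, T/C in this document: percent viability relative to DMSO vehicle wells taken as 100%.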

With `C#Cc1c(F)ccc2cc(O)cc(-c3ncc4c(N5CC6CCC(C5)N6)nc(OCC56CCCN5CC(F)C6)nc4c3F)c12` (centres undefined) the viability, T/C (compound 0.0316 µM) was 102% and 110% and 104%, the viability, T/C (compound 0.1 µM) was 121% and 94.4% and 94.7% and the viability, T/C (compound 0.316 µM) was 106% and 97.1% and 94.4%. For the same molecule, the viability, T/C (compound 1 µM) was 117% and 102% and 95.2%, the viability, T/C (compound 3.16 µM) was 124% and 92.5% and 79.8% and the viability, T/C (compound 10 µM) was 87.1% and 32.5% and 43.6%. For the same molecule, the IC50 was > 10000 nM and 7160 nM and 8220 nM.

In the case of `C=CC(=O)N1CCN(c2nc(=O)n(-c3c(C)ccnc3C(C)C)c3nc(-c4c(O)cccc4F)c(F)cc23)C(C)C1` (centres undefined), the viability, T/C (compound 0.0316 µM) is reported as 108% (2×) and 110%, the viability, T/C (compound 0.1 µM) is reported as 105% and 102% and 99.9% and the viability, T/C (compound 0.316 µM) is reported as 118% and 108% and 110%. The viability, T/C (compound 1 µM) was 101% (2×) and 102%, the viability, T/C (compound 3.16 µM) was 99.1% and 101% and 97.7% and the viability, T/C (compound 10 µM) was 69.1% and 68% and 75.9%. The IC50 was greater than 10000 nM.

In the case of `C=CCn1c(=O)c2cnc(Nc3ccc(N4CCN(C)CC4)cc3)nc2n1-c1cccc(C(C)(C)O)n1`, the viability, T/C (compound 0.0316 µM) is reported as 76.4% and 96.2% and 111%, the viability, T/C (compound 0.1 µM) is reported as 59.4% and 51.4% and 83.7% and the viability, T/C (compound 0.316 µM) is reported as 26.6% (2×) and 41.3%. For the same molecule, the viability, T/C (compound 1 µM) was 17.6% and 13.5% and 23.8%, the viability, T/C (compound 3.16 µM) was 8.54% and 7.89% and 17.9% and the viability, T/C (compound 10 µM) was 9.53% and 9.94% and 16.1%. The IC50 was 138 nM and 108 nM and 253 nM.

For `CC(=O)O[C@H]1C(=O)[C@@]2(C)[C@H]([C@H](OC(=O)c3ccccc3)[C@]3(O)C[C@H](OC(=O)[C@H](O)[C@@H](NC(=O)c4ccccc4)c4ccccc4)C(C)=C1C3(C)C)[C@]1(OC(C)=O)CO[C@@H]1C[C@@H]2O`, the viability, T/C (compound 0.0316 µM) was 57.3% and 36.6% and 33.9%, the viability, T/C (compound 0.1 µM) was 20.6% and 16.7% and 10.5% and the viability, T/C (compound 0.316 µM) was 13.1% and 15.6% and 6.57%. The viability, T/C (compound 1 µM) was 12.8% and 15.3% and 9.02%, the viability, T/C (compound 3.16 µM) was 12.2% and 9.53% and 10.6% and the viability, T/C (compound 10 µM) was 12.3% and 12.5% and 12.1%. For the same molecule, the IC50 was 39.7 nM and < 31.6 nM.

For `CC(C)(O)C1CCC(Nc2ccc3ncc(-c4cccc(C(F)(F)F)c4)n3n2)CC1` (centres undefined), the viability, T/C (compound 0.0316 µM) was 116% and 108% and 110%, the viability, T/C (compound 0.1 µM) was 95.4% and 96.7% and 97.2% and the viability, T/C (compound 0.316 µM) was 83% and 89.8% and 76.7%. For the same molecule, the viability, T/C (compound 1 µM) was 30% and 33.8% and 28.6%, the viability, T/C (compound 3.16 µM) was 0.43% and 0.52% and 1.03% and the viability, T/C (compound 10 µM) was 0.85% and 0.69% and 1%. The IC50 was 633 nM and 711 nM and 588 nM.

With `CC(C)n1c(=O)n(C)c2cnc3cc(F)c(-c4ccc(OCCCN5CCCCC5)nc4)cc3c21` the viability, T/C (compound 0.0316 µM) was 104% and 95.2% and 133%, the viability, T/C (compound 0.1 µM) was 94% and 71.9% and 96.8% and the viability, T/C (compound 0.316 µM) was 103% and 92.6% and 102%. For the same molecule, the viability, T/C (compound 1 µM) was 106% and 94.4% and 105%, the viability, T/C (compound 3.16 µM) was 81.3% and 74.1% and 100% and the viability, T/C (compound 10 µM) was 44.8% and 39.7% and 45.3%. For the same molecule, the IC50 was 8470 nM and 7090 nM and 9180 nM.

For `CC1COCCN1c1cc(-c2ccnn2C)c2ccnc(-c3ccn[nH]3)c2n1` (centres undefined), the viability, T/C (compound 0.0316 µM) was 93.3% and 80.4% and 110%, the viability, T/C (compound 0.1 µM) was 40.7% and 25.8% and 39.3% and the viability, T/C (compound 0.316 µM) was 20.1% and 22% and 14.4%. For the same molecule, the viability, T/C (compound 1 µM) was 20.6% and 15.7% and 21.6%, the viability, T/C (compound 3.16 µM) was 15.3% and 14.9% and 14.8% and the viability, T/C (compound 10 µM) was 12.3% and 12.6% and 11.2%. For the same molecule, the IC50 was 81.4 nM and 61 nM and 84.2 nM.

In the case of `CC1COCCN1c1cc(C2(O)CC3CCC(C2)O3)c2cnn(-c3ccn[nH]3)c2n1` (centres undefined), the viability, T/C (compound 0.0316 µM) is reported as 57.9% and 71.5% and 44.9%, the viability, T/C (compound 0.1 µM) is reported as 37.3% and 29.8% and 26.9% and the viability, T/C (compound 0.316 µM) is reported as 14.3% and 11.5% and 14.8%. For the same molecule, the viability, T/C (compound 1 µM) was 20.7% and 20.3% and 15.5%, the viability, T/C (compound 3.16 µM) was 14.6% and 11.3% and 12.4% and the viability, T/C (compound 10 µM) was 2.47% and 3.18% and 2.04%. For the same molecule, the IC50 was 46.9 nM and 56.9 nM and < 31.6 nM.

In the case of `CC1COCCN1c1cc(C2(S(C)(=N)=O)CC2)nc(-c2ccnc3[nH]ccc23)n1` (centres undefined), the viability, T/C (compound 0.0316 µM) is reported as 88.1% and 103% and 100%, the viability, T/C (compound 0.1 µM) is reported as 104% and 90.7% and 106% and the viability, T/C (compound 0.316 µM) is reported as 91.8% and 90.3% and 101%. The viability, T/C (compound 1 µM) was 50.2% and 61.5% and 87%, the viability, T/C (compound 3.16 µM) was 23.9% and 23.1% and 24.4% and the viability, T/C (compound 10 µM) was 13.9% and 18.3% and 13.1%. For the same molecule, the IC50 was 1050 nM and 1400 nM and 1980 nM.

In the case of `CCCS(=O)(=O)Nc1ccc(F)c(C(=O)c2c[nH]c3ncc(-c4ccc(Cl)cc4)cc23)c1F`, the viability, T/C (compound 0.0316 µM) is reported as 104% and 114% and 118%, the viability, T/C (compound 0.1 µM) is reported as 97.3% and 110% and 95% and the viability, T/C (compound 0.316 µM) is reported as 102% and 113% and 121%. The viability, T/C (compound 1 µM) was 86.6% and 83.1% and 87%, the viability, T/C (compound 3.16 µM) was 46.4% and 66% and 62.4% and the viability, T/C (compound 10 µM) was 12.2% and 13.6% and 14.5%. For the same molecule, the IC50 was 2840 nM and 4300 nM and 4140 nM.

In the case of `CC[C@@]1(O)C(=O)OCc2c1cc1n(c2=O)Cc2cc3c(CN(C)C)c(O)ccc3nc2-1`, the viability, T/C (compound 0.000999 µM) is reported as 116% and 105% and 101%, the viability, T/C (compound 0.00316 µM) is reported as 84% and 86.8% and 104% and the viability, T/C (compound 0.00999 µM) is reported as 94.2% and 83.8% and 102%. The viability, T/C (compound 0.0316 µM) was 70.6% and 71.7% and 80.6%, the viability, T/C (compound 0.0999 µM) was 22.3% and 25% and 25.1% and the viability, T/C (compound 0.316 µM) was 14% and 20.4% and 10.5%. For the same molecule, the IC50 was 51.5 nM and 53.9 nM and 59.7 nM.

For `CCc1c2c(nc3ccc(O)cc13)-c1cc3c(c(=O)n1C2)COC(=O)[C@]3(O)CC`, the viability, T/C (compound 0.000999 µM) was 67.6% and 68.7% and 66.8%, the viability, T/C (compound 0.00316 µM) was 24.9% and 26.7% and 19.9% and the viability, T/C (compound 0.00999 µM) was 13% and 18.2% and 10.6%. The viability, T/C (compound 0.0316 µM) was 12.7% and 11.9% and 9.88%, the viability, T/C (compound 0.0999 µM) was 8.64% and 6.96% and 7.26% and the viability, T/C (compound 0.316 µM) was 4.6% and 5.68% and 4.03%. For the same molecule, the IC50 was 1.61 nM and 1.72 nM and 1.51 nM.
